The record followed here is patent US9956293B2, “Targeted therapeutics” (Madrigal Pharmaceuticals, Inc., priority 2014, dated 2018).

Molecules are shown by their SMILES.

The test system of this assay is HER2. As to the kind of experiment: HER2 degradation assay with BT-474 cell line (Example 12, FACS). The following applies: Homo sapiens. Format: cell-based.
Where [1] appears, read: BT-474, SDC-TRAPs of the 41st table.

One may read the IC50 as the concentration that gives 50% inhibition. Lower therefore signals greater potency in that assay. Molecule `CCNC(=O)c1nnc(-c2cc(C(C)C)c(O)cc2O)n1-c1ccc(C(=O)N[C@H](C(=O)Nc2cccc3c2CN(C2CCC(=O)NC2=O)C3=O)C(C)C)cc1` (stereo partly drawn) [SDC-TRAP-0188, 5-(2,4-dihydroxy-5-isopropylphenyl)-4-(4-(((2S)-1-((2-(2,6-dioxopiperidin-3-yl)-1-oxoisoindolin-4-yl)amino)-3-methyl-1-oxobutan-2-yl)carbamoyl)phenyl)-N-ethyl-4H-1,2,4-triazole-3-carboxamide] displayed an IC50 (BT-474 cells) of 3950 nM.
`CC(C)c1cc(-c2nnc(O)n2-c2ccc(CCC3CCN(C(=O)Nc4cccc5c4CN(C4CCC(=O)NC4=O)C5=O)CC3)cc2)c(O)cc1O` (stereo not drawn) [SDC-TRAP-0108, 4-(4-(3-(2,4-dihydroxy-5-isopropylphenyl)-5-hydroxy-4H-1,2,4-triazol-4-yl)phenethyl)-N-(2-(2,6-dioxopiperidin-3-yl)-1-oxoisoindolin-4-yl) piperidine-1-carboxamide] yielded an IC50 (BT-474 cells) greater than 10000 nM.
For `CC(C)c1cc(-c2nnc(O)n2-c2ccc(CC3CCN(C(=O)Nc4cccc5c4CN(C4CCC(=O)NC4=O)C5=O)CC3)cc2)c(O)cc1O` (stereo not drawn) [SDC-TRAP-0114, 4-(4-(3-(2,4-dihydroxy-5-isopropylphenyl)-5-hydroxy-4H-1,2,4-triazol-4-yl)benzyl)-N-(2-(2,6-dioxopiperidin-3-yl)-1-oxoisoindolin-4-yl)piperidine-1-carboxamide], under “BT-474 cells”, half-maximal inhibition (IC50) was put at 4310 nM.
As for `CC(C)c1cc(-c2nnc(O)n2-c2ccc(CN3CCN(c4cnc(C(=O)Nc5cccc6c5CN(C5CCC(=O)NC5=O)C6=O)cn4)CC3)c(F)c2)c(O)cc1O` (stereo not drawn) [SDC-TRAP-0170, 5-(4-(4-(3-(2,4-dihydroxy-5-isopropylphenyl)-5-hydroxy-4H-1,2,4-triazol-4-yl)-2-fluorobenzyl)piperazin-1-yl)-N-(2-(2,6-dioxopiperidin-3-yl)-1-oxoisoindolin-4-yl)pyrazine-2-carboxamide], the IC50 (BT-474 cells) came to 296 nM. Against the preceding molecule, the IC50 is about 15-fold lower.
`CC(C)c1cc(-c2nnc(O)n2-c2ccc3c(ccn3CCC3CCN(C(=O)Cn4cc(F)c(=O)[nH]c4=O)CC3)c2)c(O)cc1O` [SDC-TRAP-0137, 1-(2-(4-(2-(5-(3-(2,4-dihydroxy-5-isopropylphenyl)-5-hydroxy-4H-1,2,4-triazol-4-yl)-1H-indol-1-yl)ethyl)piperidin-1-yl)-2-oxoethyl)-5-fluoropyrimidine-2,4(1H,3H)-dione]: the IC50 (BT-474 cells) was greater than 5000 nM.
For the molecule `CC(C)c1cc(-c2nnc(O)n2-c2ccc(CN3CCN(C(=O)c4ccc(CCc5c[nH]c6nc(N)[nH]c(=O)c56)cc4)CC3)c(F)c2)c(O)cc1O` [SDC-TRAP-0078, 2-amino-5-(4-(4-(4-(3-(2,4-dihydroxy-5-isopropylphenyl)-5-hydroxy-4H-1,2,4-triazol-4-yl)-2-fluorobenzyl)piperazine-1-carbonyl)phenethyl)-3H-pyrrolo[2,3-d]pyrimidin-4(7H)-one], under setting [1], the IC50 came out at 1000 nM. In other words, the single-digit micromolar range.
With `CCNC(=O)c1nnc(-c2cc(C(C)C)c(O)cc2O)n1-c1ccc(Oc2ccc(C(=O)NC(Cc3ccccc3)C(=O)Nc3cc(-c4cnoc4-c4cc(OC)c(OC)c(OC)c4)ccc3OC)cc2)cc1` (stereo not drawn) [SDC-TRAP-0158, 5-(2,4-dihydroxy-5-isopropylphenyl)-N-ethyl-4-(4-(4-((1-((2-methoxy-5-(5-(3,4,5-trimethoxyphenyl)isoxazol-4-yl)phenyl)amino)-1-oxo-3-phenylpropan-2-yl)carbamoyl)phenoxy)phenyl)-4H-1,2,4-triazole-3-carboxamide], under “BT-474, SDC-TRAPs of the 52nd table”, the IC50 was greater than 5000 nM.
As to `CC(C)c1cc(-c2nnc(O)n2-c2ccc(CN3CCN(C(=O)c4ccc(CCc5c[nH]c6nc(N)[nH]c(=O)c56)cc4)CC3)cc2)c(O)cc1O` [SDC-TRAP-0068, 2-amino-5-(4-(4-(4-(3-(2,4-dihydroxy-5-isopropylphenyl)-5-hydroxy-4H-1,2,4-triazol-4-yl)benzyl)piperazine-1-carbonyl)phenethyl)-3H-pyrrolo[2,3-d]pyrimidin-4(7H)-one], half-maximal inhibition under setting [1] (IC50) was put at 262 nM.
For the molecule `CC(C)c1cc(-c2nnc(O)n2-c2ccc3c(ccn3CCOCCNC(=O)CCn3cc(F)c(=O)[nH]c3=O)c2)c(O)cc1O` [SDC-TRAP-0048, N-(2-(2-(5-(3-(2,4-dihydroxy-5-isopropylphenyl)-5-hydroxy-4H-1,2,4-triazol-4-yl)-1H-indol-1-yl)ethoxy)ethyl)-3-(5-fluoro-2,4-dioxo-3,4-dihydropyrimidin-1(2H)-yl)propanamide], the IC50 (BT-474 cells) is greater than 5000 nM.
Take `CCNC(=O)c1nnc(-c2cc(C(C)C)c(O)cc2O)n1-c1ccc(CN2CCC(C(=O)Nc3cccc4c3CN(C3CCC(=O)NC3=O)C4=O)CC2)cc1` (stereo not drawn) [SDC-TRAP-0149, 1-(4-(3-(2,4-dihydroxy-5-isopropylphenyl)-5-(ethylcarbamoyl)-4H-1,2,4-triazol-4-yl)benzyl)-N-(2-(2,6-dioxopiperidin-3-yl)-1-oxoisoindolin-4-yl)piperidine-4-carboxamide]: for the setting “BT-474 cells”, the IC50 was 1690 nM.
Under “BT-474 cells”, `CC(C)c1cc(-c2nnc(O)n2-c2ccc(CN3CCN(C(=O)c4ccc(COC(=O)Nc5cccc6c5CN(C5CCC(=O)NC5=O)C6=O)cc4F)CC3)c(F)c2)c(O)cc1O` (stereo not drawn) [SDC-TRAP-0174, 4-(4-(4-(3-(2,4-dihydroxy-5-isopropylphenyl)-5-hydroxy-4H-1,2,4-triazol-4-yl)-2-fluorobenzyl)piperazine-1-carbonyl)-3-fluorobenzyl (2-(2,6-dioxopiperidin-3-yl)-1-oxoisoindolin-4-yl)carbamate] had an IC50 of 693 nM. Compared with the last molecule, the IC50 is about 2.4-fold lower.
Under “BT-474 cells”, `CC(C)c1cc(-c2nnc(O)n2-c2ccc(N3CCN(CC(=O)Nc4cccc5c4CN(C4CCC(=O)NC4=O)C5=O)CC3)cc2)c(O)cc1O` (stereo not drawn) [SDC-TRAP-0110, 2-(4-(4-(3-(2,4-dihydroxy-5-isopropylphenyl)-5-hydroxy-4H-1,2,4-triazol-4-yl)phenyl)piperazin-1-yl)-N-(2-(2,6-dioxopiperidin-3-yl)-1-oxoisoindolin-4-yl)acetamide] came in with an IC50 greater than 10000 nM.
Regarding `CC(C)c1cc(-c2nnc(O)n2-c2ccc3c(ccn3CCC3CCN(C(=O)c4ccc(CCc5c[nH]c6nc(N)[nH]c(=O)c56)cc4)CC3)c2)c(O)cc1O` [SDC-TRAP-0130, 2-amino-5-(4-(4-(2-(5-(3-(2,4-dihydroxy-5-isopropylphenyl)-5-hydroxy-4H-1,2,4-triazol-4-yl)-1H-indol-1-yl)ethyl)piperidine-1-carbonyl)phenethyl)-3H-pyrrolo[2,3-d]pyrimidin-4(7H)-one], the IC50 under setting [1] turned out to be 1830 nM.
Turning to `CC(C)c1cc(-c2nnc(O)n2-c2ccc3c(ccn3CCOCCN(C)C(=O)CCn3cc(F)c(=O)[nH]c3=O)c2)c(O)cc1O` [SDC-TRAP-0050, N-(2-(2-(5-(3-(2,4-dihydroxy-5-isopropylphenyl)-5-hydroxy-4H-1,2,4-triazol-4-yl)-1H-indol-1-yl)ethoxy)ethyl)-3-(5-fluoro-2,4-dioxo-3,4-dihydropyrimidin-1(2H)-yl)-N-methylpropanamide], the IC50 (BT-474 cells) is greater than 5000 nM.
Consider `CCNC(=O)c1nnc(-c2cc(C(C)C)c(O)cc2O)n1-c1ccc(Oc2ccc(C(=O)N3CCC[C@H]3C(=O)Nc3cccc4c3CN(C3CCC(=O)NC3=O)C4=O)cc2)cc1` (stereo partly drawn) [SDC-TRAP-0192, 5-(2,4-dihydroxy-5-isopropylphenyl)-4-(4-(4-((2S)-2-((2-(2,6-dioxopiperidin-3-yl)-1-oxoisoindolin-4-yl)carbamoyl)pyrrolidine-1-carbonyl)phenoxy)phenyl)-N-ethyl-4H-1,2,4-triazole-3-carboxamide], for which the IC50 (BT-474 cells) is greater than 5000 nM.
